Numbered stars: 1 amine (or outer) side, 2 acyl side, 3 side chain; on linkers, the order of the positions; unused ones are H or OH. Square brackets hold non-standard residues; d marks the D form. Side chains are listed from the residue outwards. Peptide text beside a SMILES is read from it. * marks the point of attachment. C20 diacid = O=C(O)CCCCCCCCCCCCCCCCCCC(=O)*; C18 diacid = O=C(O)CCCCCCCCCCCCCCCCC(=O)*; αMePhe(2-F) = C[C@](N)(Cc1ccccc1F)C(=O)O; γGlu = O=C(O)[C@H](CCC(=O)[*:2])N[*:1]; αMeY = C[C@](N)(Cc1ccc(O)cc1)C(=O)O; αMeF = C[C@](N)(Cc1ccccc1)C(=O)O; αMeL = CC(C)C[C@](C)(N)C(=O)O; Orn = NCCC[C@H](N)C(=O)O; AEEA = NCCOCCOCC(=O)O; Aib = CC(C)(N)C(=O)O
Experiments:
human Gcg receptor = target: T1, human Gcg receptor (Homo sapiens, UniProt P47871); assay: [125I]-Glucagon binding (SPA), human Gcg receptor; conditions: read-out: hGLcgR Ki, nM (SEM, n)
T1 construct: expressed in transfected cells; crude membranes
T1 sequence (P47871 26-477): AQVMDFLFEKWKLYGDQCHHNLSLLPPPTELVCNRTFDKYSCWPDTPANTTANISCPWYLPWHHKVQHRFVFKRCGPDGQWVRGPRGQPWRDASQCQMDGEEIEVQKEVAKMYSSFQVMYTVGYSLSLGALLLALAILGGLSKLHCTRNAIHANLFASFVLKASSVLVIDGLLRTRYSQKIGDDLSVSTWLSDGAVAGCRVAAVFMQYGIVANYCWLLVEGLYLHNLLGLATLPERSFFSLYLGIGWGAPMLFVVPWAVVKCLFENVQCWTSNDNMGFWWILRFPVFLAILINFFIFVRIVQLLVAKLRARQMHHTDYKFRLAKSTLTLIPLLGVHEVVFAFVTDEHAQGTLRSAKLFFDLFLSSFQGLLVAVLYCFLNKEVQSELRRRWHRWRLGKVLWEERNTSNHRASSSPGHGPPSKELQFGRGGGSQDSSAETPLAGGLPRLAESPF
Outline: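 Crude membranes from cells expressing the receptor, prepared by hypotonic lysis in 50 mM Tris HCl pH 7.5 with protease inhibitors, homogenization and differential centrifugation, were used in a WGA-bead SPA. Binding buffer: 25 mM HEPES pH 7.4, 2.5 mM CaCl2, 1 mM MgCl2, bacitracin, Tween-20.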

[1] = target: T2, gastric inhibitory peptide receptor (GIPR) (Homo sapiens, UniProt P48546); assay: cAMP pharmacological functional assay in presence of casein, hGIPR; type: cell-based; conditions: HEK293 cells expressing hGIPR, 0.1% Casein, geometric mean; read-out: hGIPR cAMP Rel EC50 nM (SEM, n)
T2 sequence (P48546 22-466): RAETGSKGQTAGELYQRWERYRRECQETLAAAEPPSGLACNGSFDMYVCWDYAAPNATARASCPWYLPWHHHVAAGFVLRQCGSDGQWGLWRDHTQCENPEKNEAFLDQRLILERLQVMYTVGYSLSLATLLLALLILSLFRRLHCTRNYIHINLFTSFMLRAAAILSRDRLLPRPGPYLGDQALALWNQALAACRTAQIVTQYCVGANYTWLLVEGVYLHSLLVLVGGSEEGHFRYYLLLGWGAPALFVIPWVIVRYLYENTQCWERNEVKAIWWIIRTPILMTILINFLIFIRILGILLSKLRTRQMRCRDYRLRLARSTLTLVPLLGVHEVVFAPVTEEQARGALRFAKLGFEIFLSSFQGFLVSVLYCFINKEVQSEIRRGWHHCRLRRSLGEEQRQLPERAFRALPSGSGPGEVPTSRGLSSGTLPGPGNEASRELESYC

human GLP-1R = human GLP-1R (Homo sapiens, UniProt P43220); assay: [125I]-GLP-1 binding (SPA), human GLP-1 receptor; set-up: expressed in transfected cells; crude membranes; conditions: read-out: hGLP1R Ki, (nM) (SEM, n)
Sequence of human GLP-1R (P43220 24-463): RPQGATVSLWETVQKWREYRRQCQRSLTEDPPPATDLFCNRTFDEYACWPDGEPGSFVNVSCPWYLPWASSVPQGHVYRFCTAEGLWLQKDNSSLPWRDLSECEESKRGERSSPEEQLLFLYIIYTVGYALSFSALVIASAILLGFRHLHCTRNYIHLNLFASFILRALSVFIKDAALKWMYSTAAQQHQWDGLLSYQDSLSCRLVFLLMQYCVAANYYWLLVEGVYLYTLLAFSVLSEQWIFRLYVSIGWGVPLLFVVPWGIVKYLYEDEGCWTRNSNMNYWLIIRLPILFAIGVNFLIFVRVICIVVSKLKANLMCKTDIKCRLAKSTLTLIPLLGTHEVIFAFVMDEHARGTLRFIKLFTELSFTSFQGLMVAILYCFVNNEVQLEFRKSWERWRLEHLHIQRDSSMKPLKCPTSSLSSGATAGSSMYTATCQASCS
Outline: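 Frozen cell pellets are lysed on ice in hypotonic Tris buffer, pH 7.5, homogenized, and centrifuged to a membrane pellet resuspended at about 1 to 3 mg/mL. Binding is then measured in HEPES-based buffer at pH 7.4, and curves are fitted to give IC50 and Ki.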

human GIP receptor = target: T3, human GIP receptor (Homo sapiens, UniProt P48546); assay: [125I]-GIP binding (SPA), human GIP receptor; conditions: read-out: hGIPR Ki, nM (SEM, n)
T3 construct: expressed in transfected cells; crude membranes
T3 sequence (P48546 22-466): T2 sequence (P48546 22-466)

[2] = target: human GLP-1 receptor (GLP-1R) (Homo sapiens, UniProt P43220); assay: cAMP pharmacological functional assay in presence of casein, hGLP-1R; type: cell-based; conditions: HEK293 cells expressing hGLP-1R, 0.1% Casein, geometric mean; read-out: hGLP1R cAMP Rel EC50 nM (SEM, n)
Sequence of human GLP-1 receptor (GLP-1R) (P43220 24-463): as above

Compound: CC[C@H](C)[C@H](NC(=O)[C@H](CC(C)C)NC(=O)[C@H](Cc1ccc(O)cc1)NC(=O)[C@H](CCC(=O)O)NC(=O)[C@@H](NC(=O)[C@H](Cc1ccccc1)NC(=O)[C@H](C)NC(=O)C(C)(C)NC(=O)[C@H](CCC(N)=O)NC(=O)[C@H](C)NC(=O)[C@H](CCCCNC(=O)COCCOCCNC(=O)COCCOCCNC(=O)CC[C@H](NC(=O)CCCCCCCCCCCCCCCCCCC(=O)O)C(=O)O)NC(=O)[C@H](CCCCN)NC(=O)[C@H](CC(=O)O)NC(=O)[C@H](CC(C)C)NC(=O)[C@H](CC(C)C)NC(=O)[C@@H](NC(=O)[C@H](CO)NC(=O)[C@H](Cc1ccc(O)cc1)NC(=O)[C@H](CC(=O)O)NC(=O)[C@H](CO)NC(=O)[C@@H](NC(=O)[C@H](Cc1ccccc1)NC(=O)[C@@H](NC(=O)CNC(=O)[C@H](CCC(=O)O)NC(=O)C(C)(C)NC(=O)[C@@H](N)Cc1ccc(O)cc1)[C@@H](C)O)[C@@H](C)O)[C@@H](C)CC)[C@@H](C)CC)C(=O)N[C@@H](CCC(=O)O)C(=O)NCC(=O)NCC(=O)N1CCC[C@H]1C(=O)N[C@@H](CO)C(=O)N[C@@H](CO)C(=O)NCC(=O)N[C@@H](C)C(=O)N1CCC[C@H]1C(=O)N1CCC[C@H]1C(=O)N1CCC[C@H]1C(=O)N[C@@H](CO)C(N)=O [Example 8]
- Ki (human Gcg receptor): 206 nM
- EC50 [1]: 0.0848 nM
- Ki (human GLP-1R): 2.84 nM
- Ki (human GIP receptor): 0.0772 nM
- EC50 [2]: 0.148 nM

Compound: CC[C@H](C)[C@H](NC(=O)[C@H](CC(C)C)NC(=O)[C@H](Cc1ccc(O)cc1)NC(=O)[C@H](CCC(=O)O)NC(=O)[C@@H](NC(=O)[C@H](Cc1ccccc1)NC(=O)[C@H](C)NC(=O)C(C)(C)NC(=O)[C@H](CCC(N)=O)NC(=O)[C@H](C)NC(=O)[C@H](CCCCNC(=O)COCCOCCNC(=O)COCCOCCNC(=O)CC[C@H](NC(=O)CCCCCCCCCCCCCCCCC(=O)O)C(=O)O)NC(=O)[C@H](CCCCN)NC(=O)[C@H](CC(=O)O)NC(=O)[C@H](CC(C)C)NC(=O)[C@H](CC(C)C)NC(=O)[C@@H](NC(=O)[C@H](CO)NC(=O)[C@H](Cc1ccc(O)cc1)NC(=O)[C@H](CC(=O)O)NC(=O)[C@H](CO)NC(=O)[C@@H](NC(=O)[C@](C)(Cc1ccccc1)NC(=O)[C@@H](NC(=O)CNC(=O)[C@H](CCC(=O)O)NC(=O)C(C)(C)NC(=O)[C@@H](N)Cc1ccc(O)cc1)[C@@H](C)O)[C@@H](C)O)[C@@H](C)CC)[C@@H](C)CC)C(=O)N[C@@H](C)C(=O)NCC(=O)NCC(=O)N1CCC[C@H]1C(=O)N[C@@H](CO)C(=O)N[C@@H](CO)C(=O)NCC(N)=O [Example 309] (H-Y[Aib]EGT[αMeF]TSDYSILLDKK([AEEA-AEEA-γGlu-C18 diacid])AQ[Aib]AFIEYLIAGGPSSG-NH2)
- Ki (human Gcg receptor): 64.1 nM
- EC50 [1]: 0.0389 nM
- Ki (human GLP-1R): 1.04 nM
- Ki (human GIP receptor): 0.0264 nM
- EC50 [2]: 0.033 nM

Compound: CC[C@H](C)[C@H](NC(=O)[C@H](CO)NC(=O)[C@H](CC(=O)O)NC(=O)[C@H](CC(C)C)NC(=O)[C@H](CC(C)C)NC(=O)[C@@H](NC(=O)[C@H](CO)NC(=O)[C@H](Cc1ccc(O)cc1)NC(=O)[C@H](CC(=O)O)NC(=O)[C@H](CO)NC(=O)[C@@H](NC(=O)[C@H](Cc1ccccc1)NC(=O)[C@@H](NC(=O)CNC(=O)[C@H](CCC(=O)O)NC(=O)C(C)(C)NC(=O)[C@@H](N)Cc1ccc(O)cc1)[C@@H](C)O)[C@@H](C)O)[C@@H](C)CC)C(=O)N[C@@H](C)C(=O)N[C@@H](CCC(N)=O)C(=O)NC(C)(C)C(=O)N[C@@H](C)C(=O)N[C@@H](Cc1ccccc1)C(=O)N[C@H](C(=O)N[C@@H](CCC(=O)O)C(=O)N[C@@H](Cc1ccc(O)cc1)C(=O)N[C@@H](CC(C)C)C(=O)N[C@@H](CC(C)C)C(=O)N[C@@H](CCCCNC(=O)COCCOCCNC(=O)COCCOCCNC(=O)CC[C@H](NC(=O)CCCCCCCCCCCCCCCCCCC(=O)O)C(=O)O)C(=O)NC(C)(C)C(=O)NCC(=O)N1CCC[C@H]1C(=O)N[C@@H](CO)C(=O)N[C@@H](CO)C(=O)NCC(=O)N[C@@H](C)C(=O)N1CCC[C@H]1C(=O)N1CCC[C@H]1C(=O)N1CCC[C@H]1C(=O)N[C@@H](CO)C(N)=O)[C@@H](C)CC [Example 11] (H-Y[Aib]EGTFTSDYSILLDSIAQ[Aib]AFIEYLLK([AEEA-AEEA-γGlu-C20 diacid])[Aib]GPSSGAPPPS-NH2)
- Ki (human Gcg receptor): 174 nM
- EC50 [1]: 0.486 nM
- Ki (human GLP-1R): 15.7 nM
- Ki (human GIP receptor): 0.226 nM
- EC50 [2]: 6.89 nM

Compound: CC[C@H](C)[C@H](NC(=O)[C@H](CC(C)C)NC(=O)[C@](C)(Cc1ccc(O)cc1)NC(=O)[C@@H](CCC(=O)O)NC(=O)[C@@H](NC(=O)[C@H](Cc1ccccc1)NC(=O)[C@H](CCC(=O)O)NC(=O)C(C)(C)NC(=O)[C@H](CCC(N)=O)NC(=O)[C@H](C)NC(=O)[C@H](CCCCNC(=O)COCCOCCNC(=O)COCCOCCNC(=O)CC[C@H](NC(=O)CCCCCCCCCCCCCCCCC(=O)O)C(=O)O)NC(=O)[C@H](CCCN)NC(=O)[C@H](CC(=O)O)NC(=O)[C@H](CC(C)C)NC(=O)[C@](C)(CC(C)C)NC(=O)[C@@H](NC(=O)[C@H](CO)NC(=O)[C@H](C)NC(=O)[C@H](CC(=O)O)NC(=O)[C@H](CO)NC(=O)[C@@H](NC(=O)[C@](C)(Cc1ccccc1F)NC(=O)[C@@H](NC(=O)CNC(=O)[C@H](CCC(=O)O)NC(=O)C(C)(C)NC(=O)[C@@H](N)Cc1ccc(O)cc1)[C@@H](C)O)[C@@H](C)O)[C@@H](C)CC)[C@@H](C)CC)C(=O)N[C@@H](CCC(=O)O)C(=O)NCC(=O)NCC(=O)N1CCC[C@H]1C(=O)N[C@@H](CO)C(=O)N[C@@H](CO)C(=O)NCC(=O)N[C@@H](C)C(=O)N1CCC[C@H]1C(=O)N1CCC[C@H]1C(=O)N1CCC[C@H]1C(=O)N[C@@H](CO)C(N)=O [Example 237] (H-Y[Aib]EGT[αMePhe(2-F)]TSDASI[αMeL]LD[Orn]K([AEEA-AEEA-γGlu-C18 diacid])AQ[Aib]EFI[dE][αMeY]LIEGGPSSGAPPPS-NH2)
- Ki (human Gcg receptor): > 1060 nM
- EC50 [1]: 0.0883 nM
- Ki (human GLP-1R): 1.04 nM
- Ki (human GIP receptor): 0.131 nM
- EC50 [2]: 0.0187 nM

Compound: CC[C@H](C)[C@H](NC(=O)[C@H](CC(C)C)NC(=O)[C@H](Cc1ccc(O)cc1)NC(=O)C(C)(C)NC(=O)[C@@H](NC(=O)[C@H](Cc1ccccc1)NC(=O)[C@H](CCC(=O)O)NC(=O)C(C)(C)NC(=O)[C@H](CCC(N)=O)NC(=O)[C@H](C)NC(=O)[C@H](CCCCNC(=O)COCCOCCNC(=O)COCCOCCNC(=O)CC[C@H](NC(=O)CCCCCCCCCCCCCCCCCCC(=O)O)C(=O)O)NC(=O)[C@H](CCC(=O)O)NC(=O)[C@H](CC(=O)O)NC(=O)[C@H](CC(C)C)NC(=O)[C@](C)(CC(C)C)NC(=O)[C@@H](NC(=O)[C@H](CO)NC(=O)[C@H](Cc1ccc(O)cc1)NC(=O)[C@H](CC(=O)O)NC(=O)[C@H](CO)NC(=O)[C@@H](NC(=O)[C@](C)(Cc1ccccc1F)NC(=O)[C@@H](NC(=O)CNC(=O)[C@H](CCC(=O)O)NC(=O)C(C)(C)NC(=O)[C@@H](N)Cc1ccc(O)cc1)[C@@H](C)O)[C@@H](C)O)[C@@H](C)CC)[C@@H](C)CC)C(=O)N[C@@H](CCC(=O)O)C(=O)NCC(=O)NCC(=O)N1CCC[C@H]1C(=O)N[C@@H](CO)C(=O)N[C@@H](CO)C(=O)NCC(=O)N[C@@H](C)C(=O)N1CCC[C@H]1C(=O)N1CCC[C@H]1C(=O)N1CCC[C@H]1C(=O)N[C@@H](CO)C(N)=O [Example 152] (H-Y[Aib]EGT[αMePhe(2-F)]TSDYSI[αMeL]LDEK([AEEA-AEEA-γGlu-C20 diacid])AQ[Aib]EFI[Aib]YLIEGGPSSGAPPPS-NH2)
- Ki (human Gcg receptor): 93.4 nM
- EC50 [1]: 0.0504 nM
- Ki (human GLP-1R): 48 nM
- Ki (human GIP receptor): 0.117 nM
- EC50 [2]: 0.0915 nM
